We go through five compounds from patent US20260184663A1, “INDENE COMPOUNDS, PHARMACEUTICAL COMPOSITIONS THEREOF, AND THEIR THERAPEUTIC APPLICATIONS” (NucMito Pharmaceuticals co. Ltd., priority 2022, published 2026).

Structures are written as SMILES.

Holding throughout (type): cell-based
The subject of assay [1] is MDA-MB-231 (breast cancer). The assay can be described thus: Antiproliferative activity (CCK-8 cell viability), MDA-MB-231. The conditions noted are these: Homo sapiens, 72 h, read-out: Antiproliferative activity in cancerous cells, MDA-MB-231 (inhibition of cell growth); for inhibition at 3.3 µM: Compound concentration: 3.3 μM; for inhibition at 10 µM: Compound concentration: 10 μM; for inhibition at 30 µM: Compound concentration: 30 μM. The method, boiled down:
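MDA-MB-231 breast cancer cells, grown in DMEM with 10% FBS, were plated in 96-well plates at 2,000-5,000 cells/well. Once attached, they were exposed to compound and incubated at 37° C. for 72 h. Viability was then measured with CCK-8 (10 μL per well, 4 h at 37° C.) by absorbance at 450 nm, relative to DMSO vehicle wells.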

The subject of another assay is HepG2 (liver cancer). The assay can be described thus: Antiproliferative activity (CCK-8 cell viability), HepG2. As to conditions: Homo sapiens, 72 h, read-out: Antiproliferative activity in cancerous cells, HepG2 (inhibition of cell growth); for inhibition at 3.3 µM: Compound concentration: 3.3 μM; for inhibition at 10 µM: Compound concentration: 10 μM; for inhibition at 30 µM: Compound concentration: 30 μM. The method, boiled down:
(§1)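 Cells grown in DMEM (HepG2, SW480), MEM (HeLa) or F-12K (A549), each with 10% FBS, then exposed to compound at 3.3, 10 or 30 μM for 72 h at 37 °C. CCK-8 absorbance at 450 nm; viability expressed as percent of DMSO-treated cells, graded as growth inhibition bands.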

For another assay, the system named is HeLa (cervical cancer). The assay can be described thus: Antiproliferative activity (CCK-8 cell viability), HeLa. The conditions noted are these: Homo sapiens, 72 h, read-out: Antiproliferative activity in cancerous cells, HELA (inhibition of cell growth); for inhibition at 3.3 µM: Compound concentration: 3.3 μM; for inhibition at 10 µM: Compound concentration: 10 μM; for inhibition at 30 µM: Compound concentration: 30 μM. Summed up:
as §1

The test system of assay [2] is A431 (epidermoid carcinoma). The assay can be described thus: Antiproliferative activity (CCK-8 cell viability), A431. As to conditions: Homo sapiens, 72 h, read-out: Antiproliferative activity in cancerous cells, A431 (inhibition of cell growth); for inhibition at 3.3 µM: A-431, Compound concentration: 3.3 μM; for inhibition at 10 µM: A-431, Compound concentration: 10 μM; for inhibition at 30 µM: A-431, Compound concentration: 30 μM. Summed up: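 A431 epidermoid carcinoma cells grown in DMEM with 10% FBS were plated at 2,000-5,000 cells/well in 96-well plates. After attachment they were exposed to compound at 3.3 μM, 10 μM, or 30 μM for 72 h at 37° C. Viability was then assessed by CCK-8 against DMSO vehicle-treated wells.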

For another assay, the system named is SW480 (colon cancer). The assay can be described thus: Antiproliferative activity (CCK-8 cell viability), SW480. The conditions noted are these: Homo sapiens, 72 h, read-out: Antiproliferative activity in cancerous cells, SW480 (inhibition of cell growth); for inhibition at 3.3 µM: Compound concentration: 3.3 μM; for inhibition at 10 µM: Compound concentration: 10 μM; for inhibition at 30 µM: Compound concentration: 30 μM. Summed up: as §1

Assay [3] deals with B16F10 (malignant melanoma). The assay can be described thus: Antiproliferative activity (CCK-8 cell viability), B16F10. As to conditions: Mus musculus, 72 h, read-out: Antiproliferative activity in cancerous cells, B16F10 (inhibition of cell growth); for inhibition at 3.3 µM: B16-F10, Compound concentration: 3.3 μM; for inhibition at 10 µM: B16-F10, Compound concentration: 10 μM; for inhibition at 30 µM: B16-F10, Compound concentration: 30 μM. The method, boiled down: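 B16F10 melanoma cells grown in DMEM with 10% FBS were plated in 96-well plates at 2,000-5,000 cells/well. After attachment they were exposed to compound in medium for 72 h at 37° C. CCK-8 solution (10 μL) was then added, and after 4 h at 37° C absorbance was read at 450 nm.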

Assay [4] relates to A549 (lung adenocarcinoma). The assay can be described thus: Antiproliferative activity (CCK-8 cell viability), A549. The conditions noted are these: Homo sapiens, 72 h, read-out: Antiproliferative activity in cancerous cells, A549 (inhibition of cell growth); for inhibition at 3.3 µM: Compound concentration: 3.3 μM; for inhibition at 10 µM: Compound concentration: 10 μM; for inhibition at 30 µM: Compound concentration: 30 μM. Summed up:
as §1

What is called inhibition is the drop in the measured response relative to a control, in per cent. For the compound `CC1=C(CC(=O)O)c2cc(F)ccc2/C1=C\c1ccc(C2(c3ccccc3)SCCS2)cc1` [C353, (Z)-2-(5-Fluoro-2-methyl-1-(4-(2-phenyl-1,3-dithiolan-2-yl)benzylidene)-1H-inden-3-yl)acetic acid], the inhibition at 3.3 µM in assay [1] was no less than 50%; in the assay on HepG2 (liver cancer), no less than 50%; in the assay on HeLa (cervical cancer), no less than 50%; in assay [2], no less than 50%; with SW480 (colon cancer), no less than 50%; in assay [3] it was less than 30%. The inhibition at 3.3 µM in assay [4] is less than 30%. Besides, the inhibition at 10 µM (in assay [1]; in the assay on HepG2 (liver cancer); with HeLa (cervical cancer); in assay [2]; in the assay on SW480 (colon cancer); in assay [3]) was no less than 50% throughout. Further, the inhibition at 10 µM in assay [4] was no less than 50%. Besides, the inhibition at 30 µM (in assay [1]; in the assay on HepG2 (liver cancer); in the assay with HeLa (cervical cancer); in assay [2]; with SW480 (colon cancer); in assay [3]) was no less than 50% each time. Further, the inhibition at 30 µM in assay [4] was no less than 50%.

Turning to `CC1=C(CC(=O)O)c2cc(F)ccc2/C1=C\c1cccc(-c2ccc(C(F)(F)F)cc2)c1` [D1, (Z)-2-(5-Fluoro-2-methyl-1-((4′-(trifluoromethyl)-[1,1′-biphenyl]-3-yl)-methylene)-1H-inden-3-yl)acetic acid], the inhibition at 3.3 µM in assay [1] was less than 30%; with HepG2 (liver cancer), 30 to 50%; in the assay on HeLa (cervical cancer), no less than 50%; in assay [2] it was 30 to 50%; with SW480 (colon cancer) it was less than 30%; in assay [3], less than 30%. Moreover, the inhibition at 3.3 µM in assay [4] is less than 30%. The inhibition at 10 µM (in assay [1]; with HepG2 (liver cancer); in the assay with HeLa (cervical cancer); in assay [2]; with SW480 (colon cancer); in assay [3]) was no less than 50% throughout. Moreover, the inhibition at 10 µM in assay [4] was no less than 50%. Besides, the inhibition at 30 µM (in assay [1]; in the assay with HepG2 (liver cancer); with HeLa (cervical cancer); in assay [2]; in the assay with SW480 (colon cancer); in assay [3]) was no less than 50% throughout. For the same compound, in assay [4], the inhibition at 30 µM is no less than 50%.

As for `CC1=C(CC(=O)O)c2c(F)ccc(F)c2/C1=C\c1ccc(C(C)C)cc1` [D4, (Z)-2-(4,7-Difluoro-1-(4-isopropylbenzylidene)-2-methyl-1H-inden-3-yl)acetic acid], the inhibition at 3.3 µM in assay [1] was 30 to 50%; in the assay on HepG2 (liver cancer), less than 30%; in the assay with HeLa (cervical cancer), no less than 50%; in assay [2], less than 30%; in the assay on SW480 (colon cancer), less than 30%; in assay [3], 30 to 50%. Also, the inhibition at 3.3 µM in assay [4] is less than 30%. Also, the inhibition at 10 µM is 30 to 50% in assay [1]; less than 30% in the assay on HepG2 (liver cancer); no less than 50% with HeLa (cervical cancer); less than 30% in assay [2]; less than 30% in the assay on SW480 (colon cancer); no less than 50% in assay [3]. In addition, the inhibition at 10 µM in assay [4] lay in the range of 30 to 50%. The inhibition at 30 µM (in assay [1]; in the assay on HepG2 (liver cancer); in the assay on HeLa (cervical cancer); in assay [2]; in the assay on SW480 (colon cancer); in assay [3]) was no less than 50% throughout. For the same compound, the inhibition at 30 µM in assay [4] was no less than 50%.

For `CC1=C(CC(=O)O)c2c(F)cc(F)cc2/C1=C\c1ccc(C(F)(F)F)cc1` [D5, (Z)-2-(4,6-Difluoro-2-methyl-1-(4-(trifluoromethyl)benzylidene)-1H-inden-3-yl)-acetic acid], the inhibition at 3.3 µM in assay [1] is less than 30%; in the assay on HepG2 (liver cancer), less than 30%; in the assay with HeLa (cervical cancer), less than 30%; in assay [2] it was no less than 50%; with SW480 (colon cancer) it was less than 30%; in assay [3], less than 30%. For the same compound, the inhibition at 3.3 µM in assay [4] lay in the range of 30 to 50%. Besides, the inhibition at 10 µM in assay [1] is 30 to 50%; with HepG2 (liver cancer) it was less than 30%; in the assay on HeLa (cervical cancer), no less than 50%; in assay [2], no less than 50%; with SW480 (colon cancer) it was less than 30%; in assay [3], no less than 50%. In assay [4], the inhibition at 10 µM was no less than 50%. For the same compound, the inhibition at 30 µM was no less than 50% in assay [1]; 30 to 50% in the assay on HepG2 (liver cancer); no less than 50% with HeLa (cervical cancer); no less than 50% in assay [2]; less than 30% in the assay on SW480 (colon cancer); no less than 50% in assay [3]. Moreover, in assay [4], the inhibition at 30 µM is no less than 50%.

Turning to `CCOCc1ccc(/C=C2/C(C)=C(CC(=O)O)c3cc(F)ccc32)cc1` [D10, (Z)-2-(1-(4-(Ethoxymethyl)benzylidene)-5-fluoro-2-methyl-1H-inden-3-yl)acetic acid], the inhibition at 3.3 µM in assay [1] was less than 30%; in the assay on HepG2 (liver cancer) it was less than 30%; in the assay with HeLa (cervical cancer), 30 to 50%; in assay [2] it was no less than 50%; with SW480 (colon cancer) it was 30 to 50%; in assay [3], 30 to 50%. For the same compound, the inhibition at 3.3 µM in assay [4] lay in the range of 30 to 50%. In addition, the inhibition at 10 µM is less than 30% in assay [1]; less than 30% with HepG2 (liver cancer); no less than 50% with HeLa (cervical cancer); no less than 50% in assay [2]; 30 to 50% with SW480 (colon cancer); 30 to 50% in assay [3]. Moreover, the inhibition at 10 µM in assay [4] fell in the range of 30 to 50%. Moreover, the inhibition at 30 µM was 30 to 50% in assay [1]; 30 to 50% with HepG2 (liver cancer); no less than 50% in the assay with HeLa (cervical cancer); no less than 50% in assay [2]; 30 to 50% with SW480 (colon cancer); 30 to 50% in assay [3]. Further, the inhibition at 30 µM in assay [4] lay in the range of 30 to 50%.
